Experimental data reported in publication PMC6940900, “Antiviral Activity of Benzoic Acid Derivative NC-5 Against Influenza A Virus and Its Neuraminidase Inhibition” (International Journal of Molecular Sciences, 2019).

Assays:
[1] = biological target: NA of A/Vietnam/1203/2004 (H5N1) (Influenza A virus (A/Viet Nam/1203/2004(H5N1)), UniProt Q6DPL2); assay: cell-based
[2] = biological target: NA of A/Anhui/1/2013 (H7N9) (Influenza A virus (A/Anhui/1-BALF_RG1/2013(H7N9)), UniProt A0A024E3Q2); type: cell-based

What does the source list for `O=C(O)c1ccc(N2C(=O)CCC2(CO)CO)c(Nc2nnc(C3CCCCC3)[nH]2)c1` [compound 5]?
IC50 [1]: > 480 µM; IC50 [2]: > 480 µM
